Structures can show the parent of a compound that is named as a salt.
Assays:
human CGAS (157-522) = human CGAS (157-522) (Homo sapiens, UniProt Q8N884); assay: biochemical;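 also: biochemical enzyme reaction, 2′3′-cGAMP product measured by RapidFire mass spectrometry (MRM) normalised to c-di-UMP internal standard, inhibition of product formation relative to high and low control wells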
Experimental: Compounds were serially diluted 2, 3, or 4-fold in neat DMSO to generate 11-point dose response curves and then 250 nL compound or DMSO solution was transferred to Greiner 384-well V-bottom assay plates (Catalog #781280) using an Echo acoustic dispenser (Labcyte). A solution of 150 μM ATP, 150 μM GTP, 20 μM pppGpA (GTP-2′5′-AMP, custom synthesis from ChemGenes), and 10 μg/mL sheared salmon sperm DNA (Sigma, Catalog #D1626) in assay buffer (20 mM Trizma, pH 7.5, 10 mM magnesium chloride, 0.3 mM CHAPS, and 0.01% (w/v) bovine serum albumin) was added to columns 1-17, 19-24 of the plate at 12.5 μL/well using a Combi liquid handler (ThermoFisher). A 12.5 μL/well low control solution containing 150 μM ATP, 150 μM GTP, 20 μM pppGpA in assay buffer was added to column 18 using the Combi. A 12.5 μL/well solution of 10-100 nM human CGAS (157-522) in assay buffer was then added to all wells of the plate using the Combi. […] Reactions were quenched by added 50 μL/well of 0.5% (v/v) trifluoroacetic acid (TFA) in mass spectrometry grade deionized water containing 5 μM cyclic-di-UMP (ci-di-UMP; Invivogen Catalog #tlrl-cdu) as the internal standard (IS). Plates were centrifuged for 1 min and then quenched reactions were analyzed using a RF-MS 300 system operating in a Multiple Reaction Monitoring (MRM) detection mode.
Samples (10 μL injection volume) were passed over a silica C18/type C solid phase extraction (SPE) cartridge for analyte (2′3′-cyclic guanosine monophosphate adenosine monophosphate (2′3′-cGAMP), product of biochemical reaction)/pppGpA/c-di-UMP IS adsorption. Adsorbed samples were desalted for 3000 ms using a 100% water eluent A/desalting solution. Afterwards, desalted samples were eluted using a 0.5% TFA in 20%/80% acetonitrile/water eluent B/elution solution directly into either a Sciex 4000, 5000 or 5500 triple quadrupole mass spectrometer (QQQ-MS) for MRM analyte/IS detection. QQQ-MS detection conditions were as follow: scan type: MRM; curtain (CUR) gas: 30 psi; nebulizer (GS1) gas: 50 psi; drying (GS2) gas: 60 psi; collisionally activated dissociation (CAD) gas: 12 relative setting; precursor ion (Q1) masses: 2′3′-cGAMP: m/z 675.1 Da/pppGpA: m/z 853.0 Da/c-di-UMP: m/z 613.1 Da; fragment ion (Q3) masses: 2′3′-cGAMP: m/z 524.1 Da/pppGpA: m/z 702.0 Da/c-di-UMP: 307.1 Da; declustering potentials (DPs): 2′3′-cGAMP: +81 V/pppGpA: +85 V/c-di-UMP: +85 V; entrance potential: +10 V (all analytes); collision energies (CEs): 2′3′-cGAMP: +33 V/pppGpA: +36 V/c-di-UMP: +35 V; collision cell exit potential (CXP): +10 V (all analytes); interface heater (Sciex 4000/5000 only): on; Q1 resolution: unit (all analyte); Q3 resolution: unit (all analytes). The area under the curve (AUC) for all analytes was obtained using the RapidFire Integrator software application to calculate AUC-2′3′-cGAMP/AUC-c-di-UMP intensity ratio. Percent product formation was calculated by comparison to column 6 (high control)/column 18 (low control) responses. The % product inhibition was calculated as follows:
[formula] where A is the minimum response, B is the maximum response, C is the log10*XC50, D is the slope factor, and x is the log10 compound concentration [M] in ABASE XE.

CGAS = CGAS whole blood cytokine release assay (384-well, BacMam stimulation, IP-10 by cytometric bead array); assay type: cell-based; settings: Homo sapiens, 6 h; read-out: hWB pXC50 (converted)
Outline: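 Heparinised human donor whole blood mixed with serially diluted compound plus Null BacMam stimulus, incubated 6 h at 37° C, 5% CO2. Supernatant IP-10 quantified by cytometric bead array on flow cytometer (488 nm excitation, 585/40 nm emission); inhibition of IP-10 calculated.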

Sequence of human CGAS (157-522) (Q8N884 157-522): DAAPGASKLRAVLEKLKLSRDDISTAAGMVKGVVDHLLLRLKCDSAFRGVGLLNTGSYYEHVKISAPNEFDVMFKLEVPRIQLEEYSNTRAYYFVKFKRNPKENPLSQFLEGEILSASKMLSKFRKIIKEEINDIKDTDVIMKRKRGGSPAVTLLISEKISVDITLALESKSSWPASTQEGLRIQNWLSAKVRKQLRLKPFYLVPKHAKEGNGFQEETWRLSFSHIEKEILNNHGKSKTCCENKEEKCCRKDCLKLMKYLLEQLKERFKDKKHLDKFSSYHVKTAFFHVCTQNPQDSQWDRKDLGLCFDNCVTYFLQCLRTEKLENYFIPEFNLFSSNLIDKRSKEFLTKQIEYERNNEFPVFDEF

Work on CC(C)(COCc1cnc2nc(-c3nc(C(F)(F)F)n[nH]3)c(-c3c[nH]cn3)n2c1)n1ccnc1 [Example 150, 5-(6-{[2-(1H-imidazol-1-yl)-2-methylpropoxy]methyl}-3-(1H-imidazol-4-yl)imidazo[1,2-a]pyrimidin-2-yl)-3-(trifluoromethyl)-1H-1,2,4-triazole] yielded an IC50 (human CGAS (157-522)) of 5.01 nM and an IC50 (CGAS) of 5010 nM.
In the case of FC(F)c1n[nH]c(-c2nc3ncc(Cl)cn3c2-c2c[nH]cn2)n1 [Example 4, 5-[6-chloro-3-(1H-imidazol-4-yl)imidazo[1,2-a]pyrimidin-2-yl]-3-(difluoromethyl)-1H-1,2,4-triazole], the IC50 (human CGAS (157-522)) is reported as 3.98 nM and the IC50 (CGAS) is reported as 63.1 nM.
With FC(F)(F)c1n[nH]c(-c2nc3nc4c(cn3c2-c2cnc[nH]2)CCCC4)n1 [Example 134, 5-[3-(1H-imidazol-5-yl)-6H,7H,8H,9H-imidazo[2,1-b]quinazolin-2-yl]-3-(trifluoromethyl)-1H-1,2,4-triazole] the IC50 (human CGAS (157-522)) was 3.98 nM and the IC50 (CGAS) was 398 nM.
COc1cnc2nc(-c3nc(C(F)(F)F)n[nH]3)c(-c3cnc[nH]3)n2c1 [Example 58, 5-[3-(1H-imidazol-5-yl)-6-methoxyimidazo[1,2-a]pyrimidin-2-yl]-3-(trifluoromethyl)-1H-1,2,4-triazole] gave an IC50 (human CGAS (157-522)) of 10 nM and an IC50 (CGAS) of 316 nM.
In the case of FC(F)(F)c1n[nH]c(-c2nc3ncc(COCCn4cccn4)cn3c2-c2c[nH]cn2)n1 [Example 146, 5-[3-(1H-imidazol-4-yl)-6-{[2-(1H-pyrazol-1-yl)ethoxy]methyl}imidazo[1,2-a]pyrimidin-2-yl]-3-(trifluoromethyl)-1H-1,2,4-triazole], the IC50 (human CGAS (157-522)) is reported as 6.31 nM and the IC50 (CGAS) is reported as 2000 nM.
With O=S1(=O)CCc2nc3nc(-c4nc(C(F)(F)F)n[nH]4)c(-c4cnc[nH]4)n3cc2C1 [Example 104, 6-(1H-imidazol-5-yl)-5-[3-(trifluoromethyl)-1H-1,2,4-triazol-5-yl]-11λ^6-thia-2,4,7-triazatricyclo[7.4.0.0^3,^7]trideca-1,3,5,8-tetraene-11,11-dione] the IC50 (human CGAS (157-522)) was 3.98 nM and the IC50 (CGAS) was 6310 nM.
For OCc1cnc2nc(-c3nc(C(F)(F)F)n[nH]3)c(-c3cnc[nH]3)n2c1 [Example 61, [3-(1H-imidazol-5-yl)-2-[3-(trifluoromethyl)-1H-1,2,4-triazol-5-yl]imidazo[1,2-a]pyrimidin-6-yl]methanol], the IC50 (human CGAS (157-522)) was 12.6 nM and the IC50 (CGAS) was 398 nM.
For FC(F)(F)c1n[nH]c(-c2nc3ncc(COC4CCC4)cn3c2-c2c[nH]cn2)n1 [Example 157, 5-[6-(cyclobutoxymethyl)-3-(1H-imidazol-4-yl)imidazo[1,2-a]pyrimidin-2-yl]-3-(trifluoromethyl)-1H-1,2,4-triazole], the IC50 (human CGAS (157-522)) was 2.51 nM and the IC50 (CGAS) was 251 nM.
Compound CC(C)c1ccn2c(-c3cnc[nH]3)c(-c3nc(C(F)(F)F)n[nH]3)nc2n1 [Example 55, 5-[3-(1H-imidazol-5-yl)-7-(propan-2-yl)imidazo[1,2-a]pyrimidin-2-yl]-3-(trifluoromethyl)-1H-1,2,4-triazole] has an IC50 (human CGAS (157-522)) of 7.94 nM and an IC50 (CGAS) of 1000 nM.
Compound FC(F)(F)c1n[nH]c(-c2nc3ncc(C4CCCO4)cn3c2-c2cnc[nH]2)n1 (centres unmarked) [Example 82, 5-[3-(1H-imidazol-5-yl)-6-(oxolan-2-yl)imidazo[1,2-a]pyrimidin-2-yl]-3-(trifluoromethyl)-1H-1,2,4-triazole] has an IC50 (human CGAS (157-522)) of 5.01 nM and an IC50 (CGAS) of 200 nM.
Compound FC(F)c1n[nH]c(-c2nc3ncccn3c2-c2cnc[nH]2)n1 [Example 50, 3-(difluoromethyl)-5-[3-(1H-imidazol-5-yl)imidazo[1,2-a]pyrimidin-2-yl]-1H-1,2,4-triazole] has an IC50 (human CGAS (157-522)) of 3.16 nM and an IC50 (CGAS) of 79.4 nM.
Work on FC(F)(F)c1n[nH]c(-c2nc3ncc(COCCC4CCCO4)cn3c2-c2cnc[nH]2)n1 (centres unmarked) [Example 141, 5-[3-(1H-imidazol-5-yl)-6-{[2-(oxolan-2-yl)ethoxy]methyl}imidazo[1,2-a]pyrimidin-2-yl]-3-(trifluoromethyl)-1H-1,2,4-triazole] yielded an IC50 (human CGAS (157-522)) of 3.98 nM and an IC50 (CGAS) of 316 nM.
In the case of FC(F)(F)c1n[nH]c(-c2nc3nc4c(cn3c2-c2cnc[nH]2)CSCC4)n1 [Example 103, 6-(1H-imidazol-5-yl)-5-[3-(trifluoromethyl)-1H-1,2,4-triazol-5-yl]-11-thia-2,4,7-triazatricyclo[7.4.0.03,7]trideca-1,3,5,8-tetraene], the IC50 (human CGAS (157-522)) is reported as 1.26 nM and the IC50 (CGAS) is reported as 251 nM.
With O=C(CCCOP(=O)(O)O)OCn1cnc(-c2c(-c3nc(C(F)(F)F)nn3COC(=O)CCCOP(=O)(O)O)nc3ncccn23)c1 [Example 30, {4-oxo-4-[(5-{3-[1-({[4-(phosphonooxy)butanoyl]oxy}methyl)-1H-imidazol-4-yl]imidazo[1,2-a]pyrimidin-2-yl}-3-(trifluoromethyl)-1H-1,2,4-triazol-1-yl)methoxy]butoxy}phosphonic acid, trifluoroacetic acid salt] the IC50 (human CGAS (157-522)) was 316 nM and the IC50 (CGAS) was 1260 nM.
With CC(=O)OCn1cnc(-c2c(-c3nc(C(F)(F)F)nn3COC(C)=O)nc3ncccn23)c1 [Example 84, [5-(3-{1-[(acetyloxy)methyl]-1H-imidazol-4-yl}imidazo[1,2-a]pyrimidin-2-yl)-3-(trifluoromethyl)-1H-1,2,4-triazol-1-yl]methyl acetate] the IC50 (human CGAS (157-522)) was 15800 nM and the IC50 (CGAS) was 158 nM.
In the case of FC(F)(F)c1n[nH]c(-c2nc3nc(C(F)(F)F)c(Cl)cn3c2-c2cnc[nH]2)n1 [Example 128, 5-[6-chloro-3-(1H-imidazol-5-yl)-7-(trifluoromethyl)imidazo[1,2-a]pyrimidin-2-yl]-3-(trifluoromethyl)-1H-1,2,4-triazole], the IC50 (human CGAS (157-522)) is reported as 12.6 nM and the IC50 (CGAS) is reported as 3160 nM.
For FC(F)(F)c1n[nH]c(-c2nc3ncc(CC4CCCCC4)cn3c2-c2cnc[nH]2)n1 [Example 15, 5-[6-(cyclohexylmethyl)-3-(1H-imidazol-5-yl)imidazo[1,2-a]pyrimidin-2-yl]-3-(trifluoromethyl)-1H-1,2,4-triazole, trifluoroacetic acid salt], the IC50 (human CGAS (157-522)) was 10 nM and the IC50 (CGAS) was greater than 31600 nM.
With O=C(O)CCOC(=O)OCn1nc(C(F)(F)F)nc1-c1nc2ncccn2c1-c1cnc[nH]1 [Example 33, 3-{[({5-[3-(1H-imidazol-5-yl)imidazo[1,2-a]pyrimidin-2-yl]-3-(trifluoromethyl)-1H-1,2,4-triazol-1-yl}methoxy)carbonyl]oxy}propanoic acid, 2 trifluoroacetic acid salt] the IC50 (human CGAS (157-522)) was 316 nM and the IC50 (CGAS) was 501 nM.
In the case of FC(F)(F)c1n[nH]c(-c2nc3nc4c(cn3c2-c2cnc[nH]2)COCC4)n1 [Example 71, 6-(1H-imidazol-5-yl)-5-[3-(trifluoromethyl)-1H-1,2,4-triazol-5-yl]-11-oxa-2,4,7-triazatricyclo[7.4.0.0^3,^7]trideca-1,3,5,8-tetraene], the IC50 (human CGAS (157-522)) is reported as 5.01 nM and the IC50 (CGAS) is reported as 126 nM.
Compound FC(F)(F)c1n[nH]c(-c2nc3nc4c(cn3c2-c2c[nH]cn2)COC4)n1 [Example 10, 12-(1H-imidazol-4-yl)-11-[3-(trifluoromethyl)-1H-1,2,4-triazol-5-yl]-5-oxa-1,8,10-triazatricyclo[7.3.0.0^3, ^7] dodeca-2,7,9,11-tetraene, 0.2 trifluoroacetic acid salt] has an IC50 (human CGAS (157-522)) of 6.31 nM and an IC50 (CGAS) of 126 nM.
O=C(O)CCOC(=O)OCn1cnc(-c2c(-c3nc(C(F)(F)F)nn3COC(=O)OCCC(=O)O)nc3ncccn23)c1 [Example 31, 3-({[(4-{2-[1-({[(2-carboxyethoxy)carbonyl]oxy}methyl)-3-(trifluoromethyl)-1H-1,2,4-triazol-5-yl]imidazo[1,2-a]pyrimidin-3-yl}-1H-imidazol-1-yl)methoxy]carbonyl}oxy)propanoic acid, trifluoroacetic acid salt] was tested, and the IC50 (human CGAS (157-522)) was 2000 nM and the IC50 (CGAS) was 5010 nM.
With CCOCCOCc1cnc2nc(-c3nc(C(F)(F)F)n[nH]3)c(-c3cnc[nH]3)n2c1 [Example 129, 5-{6-[(2-ethoxyethoxy)methyl]-3-(1H-imidazol-5-yl)imidazo[1,2-a]pyrimidin-2-yl}-3-(trifluoromethyl)-1H-1,2,4-triazole] the IC50 (human CGAS (157-522)) was 7.94 nM and the IC50 (CGAS) was 316 nM.
OCCCCCOCc1cnc2nc(-c3nc(C(F)(F)F)n[nH]3)c(-c3cnc[nH]3)n2c1 [Example 142, 5-{[3-(1H-imidazol-5-yl)-2-[3-(trifluoromethyl)-1H-1,2,4-triazol-5-yl]imidazo[1,2-a]pyrimidin-6-yl]methoxy}pentan-1-ol] showed an IC50 (human CGAS (157-522)) of 3.98 nM and an IC50 (CGAS) of 794 nM.
With Nc1ccn2c(-c3cnc[nH]3)c(-c3nc(C(F)(F)F)n[nH]3)nc2n1 [Example 107, 3-(1H-imidazol-5-yl)-2-[3-(trifluoromethyl)-1H-1,2,4-triazol-5-yl]imidazo[1,2-a]pyrimidin-7-amine] the IC50 (human CGAS (157-522)) was 2.51 nM and the IC50 (CGAS) was 631 nM.
Brc1n[nH]c(-c2nc3nc4c(cn3c2-c2cnc[nH]2)CCO4)n1 [Example 57, 11-(3-bromo-1H-1,2,4-triazol-5-yl)-12-(1H-imidazol-5-yl)-6-oxa-1,8,10-triazatricyclo[7.3.0.0^3,^7]dodeca-2,7,9,11-tetraene] gave an IC50 (human CGAS (157-522)) of 5.01 nM and an IC50 (CGAS) of 63.1 nM.
CC(COCc1cnc2nc(-c3nc(C(F)(F)F)n[nH]3)c(-c3c[nH]cn3)n2c1)n1ccnc1 (centres unmarked) [Example 143, 5-(6-{[2-(1H-imidazol-1-yl)propoxy]methyl}-3-(1H-imidazol-4-yl)imidazo[1,2-a]pyrimidin-2-yl)-3-(trifluoromethyl)-1H-1,2,4-triazole] showed an IC50 (human CGAS (157-522)) of 3.98 nM and an IC50 (CGAS) of 2510 nM.
Compound FC(F)CN1CC(Oc2cnc3nc(-c4nc(C(F)(F)F)n[nH]4)c(-c4cnc[nH]4)n3c2)C1 [Example 162, 5-(6-{[1-(2,2-difluoroethyl)azetidin-3-yl]oxy}-3-(1H-imidazol-5-yl)imidazo[1,2-a]pyrimidin-2-yl)-3-(trifluoromethyl)-1H-1,2,4-triazole] has an IC50 (human CGAS (157-522)) of 7.94 nM and an IC50 (CGAS) of 1000 nM.
CC(C)(C)c1cnc2nc(-c3nc(C(F)(F)F)n[nH]3)c(-c3c[nH]cn3)n2c1 [Example 109, 5-[6-tert-butyl-3-(1H-imidazol-4-yl)imidazo[1,2-a]pyrimidin-2-yl]-3-(trifluoromethyl)-1H-1,2,4-triazole] was tested, and the IC50 (human CGAS (157-522)) was 5.01 nM and the IC50 (CGAS) was 1260 nM.
